Tests used:
Type in all cases: in vivo, human
[1] = test system: patients suffering from FBSS (lumbar pain); experiment: Clinical study: pain evaluation by Numeric Rating Scales (NRS) after peridural infiltration; conditions: 11 FBSS patients, epidural 1 ml of 50 or 100 mg/ml, +1 week
From the text: 11 patients (7 males and 4 females), of ages ranging between 48 and 78 years, and suffering from FBSS, were studied (according to the operative diagram in FIG. 1) for a 9-month period. As criteria for inclusion in the treatment protocol were considered: • failed back surgery syndrome (FBSS) • lumbar pain present for >3 months • absence of improvement of pain with administration of oral pharmacological analgesics/opioids-based therapy; • non-eligibility for lumbar revision surgery treatment. • patients refusing treatment; • carriers of infections localized at the level of the infiltration site; • undergoing systemic infective processes; • coagulation alterations. After having been evaluated under the clinical instrumental standpoint, the patient was subjected to infiltrative treatment upon coagulation testing and replacement of oral anticoagulant therapy (possibly taken by the patient), with low molecular weight heparin. Infiltration was conducted in Day Surgery regimen, inviting the patient to have it on an empty stomach. […] The drug at issue, sodium 2-mercaptoethansulfonate, was contained in an ampoule with a 10% concentration; for each infiltration, 1 ml was collected and the concentration used was of 50 mg/ml in some cases and of 100 mg/ml in other cases. The entire infiltration procedure required 10-15 min. Of the 11 patients, 2 had already undergone 3 surgical interventions to the lumbar rachis, other 2 had undergone 2 interventions, and 7 had undergone 1 intervention. […] In particular, we asked to assign a value (comprised between 0 and 10) to pain intensity in a standing position, in horizontal posture, and while sitting; evaluation of the 3 parameters helped us in pain classification, and was aimed at determining musculoskeletal and gravity activation at different instants and the quantitative impact on pain intensity caused by the assuming of the different positions. […] To the first answer a score equal to 0 was assigned, to the second one equal to 1, and so on until the sixth answer that would be equal to 5. the score is calculated as follows: TOTAL SCORE/(5×9)×100.

[2] = test system: patients suffering from FBSS (lumbar pain); experiment: Clinical study: lumbar rachis functionality by Oswestry Disability Index (ODI); conditions: 11 FBSS patients; epidural 1 ml of 50 or 100 mg/ml; +1 week; before the procedure 52.18%; P=0.05
From the text: 11 patients (7 males and 4 females), of ages ranging between 48 and 78 years, and suffering from FBSS, were studied (according to the operative diagram in FIG. 1) for a 9-month period. As criteria for inclusion in the treatment protocol were considered: • failed back surgery syndrome (FBSS) • lumbar pain present for >3 months • absence of improvement of pain with administration of oral pharmacological analgesics/opioids-based therapy; • non-eligibility for lumbar revision surgery treatment. • patients refusing treatment; • carriers of infections localized at the level of the infiltration site; • undergoing systemic infective processes; • coagulation alterations. After having been evaluated under the clinical instrumental standpoint, the patient was subjected to infiltrative treatment upon coagulation testing and replacement of oral anticoagulant therapy (possibly taken by the patient), with low molecular weight heparin. […] In particular, we asked to assign a value (comprised between 0 and 10) to pain intensity in a standing position, in horizontal posture, and while sitting; evaluation of the 3 parameters helped us in pain classification, and was aimed at determining musculoskeletal and gravity activation at different instants and the quantitative impact on pain intensity caused by the assuming of the different positions. […]

[3] = test system: patients suffering from FBSS (lumbar pain); experiment: Clinical study: functional improvement by Odom's criteria; conditions: out of 11 FBSS patients; after epidural infiltration
From the text: 11 patients (7 males and 4 females), of ages ranging between 48 and 78 years, and suffering from FBSS, were studied (according to the operative diagram in FIG. 1) for a 9-month period. As criteria for inclusion in the treatment protocol were considered: • failed back surgery syndrome (FBSS) • lumbar pain present for >3 months • absence of improvement of pain with administration of oral pharmacological analgesics/opioids-based therapy; • non-eligibility for lumbar revision surgery treatment. • patients refusing treatment; • carriers of infections localized at the level of the infiltration site; • undergoing systemic infective processes; • coagulation alterations. After having been evaluated under the clinical instrumental standpoint, the patient was subjected to infiltrative treatment upon coagulation testing and replacement of oral anticoagulant therapy (possibly taken by the patient), with low molecular weight heparin. Infiltration was conducted in Day Surgery regimen, inviting the patient to have it on an empty stomach. […] The drug at issue, sodium 2-mercaptoethansulfonate, was contained in an ampoule with a 10% concentration; for each infiltration, 1 ml was collected and the concentration used was of 50 mg/ml in some cases and of 100 mg/ml in other cases. The entire infiltration procedure required 10-15 min. Of the 11 patients, 2 had already undergone 3 surgical interventions to the lumbar rachis, other 2 had undergone 2 interventions, and 7 had undergone 1 intervention. In particular, 4 had undergone an herniectomy, 2 an hemilaminectomy, 2 an herniectomy plus an hemilaminectomy and 3 a vertebral stabilization intervention. The levels involved were comprised between L1 and S1, with an extension range of 2 to 5 levels. Each patient was subjected, on average, to 2 (range comprised between 1 and 4) peridural infiltrations of sodium 2 mercaptoethane sulfonate (FIG. 2).

## O=S(=O)([O-])CCS.[Na+] [sodium 2-mercaptoethane sulfonate, Sodium 2-mercaptoethane sulfonate]
[1]; on average 2 infiltrations, pre-procedure mean 7.0, P=0.002
  mean pain NRS (0-10) in a sitting position following the procedure: 5.55
[1]; pre-procedure mean 6.64, P=0.001
  mean pain NRS (0-10) in a horizontal position following the procedure: 4.82
[1]; pre-procedure mean 7.36, P=0.01
  mean pain NRS (0-10) standing following the procedure: 5.73
[2]
  Oswestry Disability Index (ODI), average after the procedure: 41.64%
[3]
  Odom's criteria: number of patients with Excellent result: 0 patients
  Odom's criteria: number of patients with Fair result: 4 patients
  Odom's criteria: number of patients with Good result: 7 patients
  Odom's criteria: number of patients with Poor result: 0 patients
  Odom's criteria: share of patients with Fair result: 36.4%
  Odom's criteria: share of patients with Good result: 63.6%
